Data on one compound can be found in patent US12011438B2, “Composition for protecting cardiomyocyte” (Kyoto University, priority 2018, dated 2024).

Structures can show the parent of a compound that is named as a salt.

The subject of test [1] is H9C2 cells, rat cardiomyoblasts. Nature of the test: Rat cardiomyoblasts under ER stress with tunicamycin: cell number and ATP level. The format is cell-based. Conditions: 0.1 pg/mL tunicamycin, 25, 50, 100, or 200 pM KUS121, 24 hours. How it is done:
(§1) H9C2 cells, rat cardiomyoblasts, were cultured in Dulbecco's modified Eagle's medium (DMEM) supplemented with 5% fetal bovine serum in the presence of […] tunicamycin (Sigma-Aldrich Co. LLC), which induces ER stress, and 25, 50, 100, or […] KUS121 for 24 hours. The cells were counted by Countess II (Thermo Fisher Scientific). The intracellular ATP levels were measured using “Cell” ATP Assay reagent (TOYO B-Net Co., LTD). The luciferase activities, which indicate ATP levels, were measured with ARVO X3 (PerkinElmer, Inc.).

Test [2] relates to CHOP and Bip, ER stress markers. Nature of the test: Western blotting of ER stress markers in rat cardiomyoblasts under tunicamycin. Particulars: H9C2 cells, 200 μM KUS121 (FIG. 5). The format is cell-based. How it is done: as §1
(§2) The cells cultured as above were subjected to Western blotting. […] After the protein concentrations were measured with BCA protein assay kit (Bio-Rad, 5000006JA), 15 μg of the protein samples were separated in NuPAGE 4-12% Bis-Tris Mini gels (Thermo Fisher Scientific) and transferred to Protran nitrocellulose transfer membrane (Whatman). The membrane was blocked with PBS containing 5% skim milk for 30 minutes, incubated with primary antibodies overnight at 4° C., washed with PBS-0.05% Tween-20 (PBS-T), incubated with secondary antibodies for 1 hour at room temperature, and washed with PBS-T. Pierce Western Blotting Substrate (Thermo Fisher Scientific) or Pierce Western Blotting Substrate plus (Thermo Fisher Scientific) were reacted with the secondary antibodies for producing colors, and the color intensities were measured by LAS-4000 Mini system (Fuji Film). […]
A general note: Immunoblotting shows a protein as a band on a membrane.

Test [3] has as its system H9C2 cells, rat cardiomyoblasts. Nature of the test: Rat cardiomyoblasts under ER stress by glucose depletion: cell number and ATP level. Particulars: glucose-free medium, 25, 50, 100, or 200 μM KUS121 (FIG. 6). The format is cell-based. The protocol:
as §1
Similar experiments were performed using the cells cultured in a glucose-free medium. […] The expressions of CHOP and Bip, ER stress markers, were suppressed in the presence of KUS121.

Test [4] has as its system CHOP and Bip, ER stress markers. Nature of the test: Western blotting of ER stress markers in rat cardiomyoblasts in glucose-free medium. Format: cell-based. Particulars: H9C2 cells, 200 μM KUS121 (FIG. 7). How it is done: as §1, §2
Test [5] has as its system cardiac ischemia and reperfusion injury model mice. The test is described as follows: Mouse cardiac ischemia and reperfusion injury model (KUS administration prior to ischemia). The format is in vivo. The protocol: Eight-week-old C57BL/6J mice were used. Each mouse was anesthetized with intraperitoneally administered pentobarbital (64.8 mg/kg). An endotracheal tube was introduced after the anesthetic induction and positive pressure ventilation was provided.
Each mouse was fixed in a right lateral position, the thoracic cavity was opened through left thoracotomy in the third intercostal space to expose the heart. […] The blockage of the coronary blood flow was confirmed by observing a change in the color of the myocardium. The ischemia was continued for 45 minutes and then reperfusion was induced by removing the PE10 tube. The reperfusion was confirmed by checking restoration of the color of the myocardium. The thoracic cavity was closed with 7-0 prolene sutures and the skin was closed with 4-0 silk sutures. After observing awakening from the anesthesia, the endotracheal tube was removed.
KUS121 dissolved in a physiological saline was injected prior to the ischemia induction. […] First, 2 hours before the reperfusion, i.e., about 1 hour before the start of the ischemia, KUS121 was intraperitoneally administered at the dose of 160 mg/kg. Subsequently, KUS121 was intraperitoneally administered at the dose of 160 mg/kg every 24 hours for 6 days.
Seven days after the surgery, the mice were anesthetized with pentobarbital, perfused with 4% paraformaldehyde (PFA) for fixation, and the hearts were isolated. The isolated hearts were further fixed in 4% PFA overnight. The hearts were embedded in paraffin and sections were prepared. The infarcted regions were evaluated with Masson's trichrome staining. The images were acquired using a microscope (BZ-9000, Keyence) and the infarcted areas were measured using Image J (NIH).
To evaluate the cardiac function, echocardiography (Vevo^(registered trademark) 2100, VISUALSONICS) was performed in the mouse ischemia and reperfusion injury model. […] The left ventricular systolic functions were evaluated by measuring the left ventricular fractional shortening and left ventricular ejection fraction in parasternal short axis views.

Test [6] concerns A team mouse heart ischemia and reperfusion injury model. The test is described as follows: Mouse heart ischemia and reperfusion injury model (ATP visualization mouse). The format is in vivo. Conditions: A team mice, 160 mg/kg i.p. 2 hours before reperfusion, 45 minutes ischemia. The text has this:
ATP visualization mouse (A team mouse) generated by Dr. Masamichi Yamamoto (Department of Nephrology, Graduate School of Medicine, Kyoto University) was used. In A team mouse fluorescence resonance energy transfer (FRET) from GFP to OFP occurs depending on the intracellular ATP level. The OFP/GFP ratio is proportional to the ATP level.
Anesthesia was induced in each A team mouse with 4% isoflurane and maintained with 2% isoflurane during surgery. An endotracheal tube was introduced after the anesthetic induction and positive pressure ventilation was provided. The lateral thoracic regions and subcostal margins were incised bilaterally and the thoracic cavity was opened to expose the heart. […] The ischemia was continued for 45 minutes and then reperfusion was induced by removing the PE10 tube. KUS121 was intraperitoneally administered at the dose of 160 mg/kg 2 hours before the reperfusion. For measuring the ATP level, fluorescence was excited at 470/40 and detected at 515/30 for GFP and 575/40 for OFP to acquire images. The OFP/GFP ratios were analyzed using MetaMorph (Molecular Devices). The ATP level during ischemia was decreased in the control group, but maintained in the KUS121 group.

The subject of test [7] is cardiac ischemia and reperfusion injury model mice. The test is described as follows: Mouse cardiac ischemia and reperfusion injury model (KUS administration after reperfusion). Format: in vivo. Conditions: seven days after surgery. How it is done: Mouse myocardial infarction model was prepared as in Test 5.
First, immediately after the reperfusion KUS121 was administered intravenously at the dose of 80 mg/kg and intraperitoneally at the dose of 80 mg/kg. Subsequently, KUS121 was intraperitoneally administered at the dose of 160 mg/kg every 24 hours for 4 days. Seven days after the surgery, histological analysis was performed as in Test 5 to determine the infarcted area.
Immediately after the reperfusion KUS121 was administered intravenously at the dose of 25 mg/kg and intraperitoneally at the dose of 25 mg/kg. Subsequently, KUS121 was not administered. Seven days after the surgery, histological analysis was performed as in Test 5 to determine the infarcted area.
Immediately after the reperfusion KUS121 was administered intravenously at the dose of 8 mg/kg and intraperitoneally at the dose of 8 mg/kg. Subsequently, KUS121 was not administered. Seven days after the surgery, histological analysis was performed as in Test 5 to determine the infarcted area.

The test system of test [8] is cardiac ischemia and reperfusion injury model pigs. Nature of the test: Porcine cardiac ischemia and reperfusion injury model (intravenous and intracoronary administration of KUS). The format is in vivo, Yorkshire pig. How it is done:
Porcine myocardial infarction model was prepared by inserting a catheter into a Yorkshire pig under general anesthesia and occluding the left coronary artery with a balloon. An infusion solution was prepared by dissolving KUS121 (4 mg/kg) in 250 mL of glucose solution and administered by intravenous infusion that started 45 minutes after the occlusion of the coronary artery and continued for 3 hours. The balloon was released 60 minutes after the occlusion, and 10 mL of the infusion solution was infused intracoronarily.
One week after the occlusion, the infarct size was evaluated by late gadolinium enhanced MRI. […] The cardiac function was evaluated by determining left ventricular ejection fraction, end diastolic volume, end systolic volume, cardiac output, and left ventricular mass by MRI. The left ventricular systolic function was improved by KUS121 administration.
After the MRI, the occluded part of the left coronary artery was occluded again with the balloon catheter and 1% Evans blue was injected to the left and right coronary arteries (60 mL for the left coronary artery and 30 mL for the right coronary artery; non-infarct regions were stained blue). Additionally, 30 mL of 1% TTC solution was injected through the guidewire lumen of the occlusion balloon. Euthanasia was then performed by an intravenous injection of potassium chloride. The heart was isolated and 10-mm thick sections were prepared parallel to the atrioventricular groove. The sections were further immersed in 1% TTC solution for 10 minutes at 37° C. (regions not damaged by myocardial infarction were stained red). All sections were weighed and photographed. They were fixed in 10% formaldehyde and used for subsequent histological analysis. […] No difference was found in the area at risk between the […] group and the KUS group, but administration of KUS decreased the infarcted area per area at risk.

The test system is the same in test [9]. The test is described as follows: Porcine cardiac ischemia and reperfusion injury model (KUS administration after reperfusion). The format is in vivo, Yorkshire pig. Particulars: intracoronary injection 0.64, 2.5, or 5.0 mg/kg immediately after reperfusion, seven days after surgery. How it is done:
Porcine myocardial infarction model was prepared as in Test 8. The balloon was released 60 minutes after the occlusion, and immediately KUS121 was administered by intracoronary injection at a dose of 0.64, 2.5, or 5.0 mg/kg for 3 minutes. Seven days after the surgery, the infarct size was evaluated by MRI and the infarcted area was determined by histological analysis as in Test 8.

The mark [10] stands for this setting: intravenous infusion plus intracoronary, histological analysis (Evans blue/TTC).

As to `Cc1cc(F)ccc1-c1ccc(/N=N/c2cc(S(=O)(=O)O)c3ccccc3c2N)cn1` [KUS121, 4-amino-3-[6-(4-fluoro-2-methylphenyl)pyridine-3-ylazo]naphthalene-1-sulfonic acid sodium salt], the ATP level entry in test [1] and in test [3] was “increased depending on the dose” each time. For the same compound, the cell number result in test [1] and in test [3] was “increased depending on the dose” each time. For the same compound, the “expression of Bip” value in [2] and in [4] was “suppressed” in each case. For the same compound, the “expression of CHOP” value in [2] and in [4] was “suppressed” throughout. The “infarcted area (ratio to left ventricle area)” value is given as “smaller in the KUS121 group than in the control group” in test [5] (160 mg/kg i.p. 2 hours before reperfusion and every 24 hours for 6 days, seven days after surgery, Masson's trichrome); “smaller in the KUS121 group than in the control group” in test [7] ((1) 160 mg/kg: 80 mg/kg i.v. + 80 mg/kg i.p. immediately after reperfusion, then 160 mg/kg i.p. every 24 hours for 4 days); “smaller in the KUS121 group than in the control group” in [7] ((2) 50 mg/kg: 25 mg/kg i.v. + 25 mg/kg i.p. immediately after reperfusion only); “No significant difference” in [7] ((3) 16 mg/kg: 8 mg/kg i.v. + 8 mg/kg i.p. immediately after reperfusion only). For the same compound, the “expression of CHOP in the border zone and non-ischemic zone” value in test [5] (160 mg/kg i.p. prior to ischemia and every 24 hours, Western blotting) is listed as “suppressed”. Moreover, the “left ventricular systolic function (fractional shortening, ejection fraction)” value in [5] (160 mg/kg i.p. prior to ischemia and every 24 hours, echocardiography) is listed as “kept well at almost the same level as that in sham-operated group”. In addition, the “ATP level during ischemia (OFP/GFP ratio)” value in [6] is listed as “maintained”. The “left ventricular systolic function” value in test [8] (4 mg/kg intravenous infusion for 3 hours plus intracoronary infusion after reperfusion, MRI one week after occlusion) is “improved”. In test [8] (setting [10]), the “area at risk relative to the left ventricle” value is listed as “No difference”. In addition, the “infarcted area per area at risk” value in test [8] (setting [10]) is “decreased”. Also, the “ratio of infarcted area/left ventricle (LV) area evaluated by MRI” value in test [9] was “decreased in the KUS121 group in a dose-dependent manner”. Besides, the “ratio of infarcted area/AAR” value in test [9] (histological analysis) is “decreased in the KUS121 group in a dose-dependent manner”. The “ratio of infarcted area/area at risk (AAR) (first mention)” value in test [9] (versus control group) is reported as “comparable with that of the control group”.
